In the supplement of paper PMC10627819:

Key:
[1] = tested on: S. pneumoniae D39V; test: fitness (endpoint OD595 vs no drug) (fraction); higher = more growth
Method in brief: (§1)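 Fitness compares growth at the stationary-phase transition with the robust mean of no-drug control wells, as a ratio of optical densities. The ratio is capped at 1. Wells of 384-well plates held 30 µl, or 55 µl for S. pneumoniae, inoculated at OD595 0.01. Readings at OD595 every 30 min for 14 h at 37 °C were corrected against the first reading.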

[2] = tested on: B. subtilis 168; test: as above
Method in brief: as §1

[3] = tested on: S. pneumoniae D39V; test: Bliss interaction score (quartile over a dose matrix) (fitness difference); higher = more antagonism (negative = synergy)
Method in brief: (§2)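 Fitness here means normalised growth, inferred for single drugs from the combination data. Growth was OD595 at entry into stationary phase, divided by the plate's robust no-drug mean and capped at 1. The Bliss score is observed minus expected fitness, with the expectation being the product, and its quartiles span technical, biological and donor/recipient replicates.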

[4] = tested on: S. aureus Newman; test: as above
Method in brief: as §2

[5] = tested on: S. aureus DSM 20231; test: as above
Method in brief: as §2

[6] = tested on: B. subtilis 168; test: as above
Method in brief: as §2
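Throughout, for Bliss interaction score (quartile over a dose matrix): first quartile when negative (synergy) and third quartile when positive (antagonism).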
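Throughout, for fitness (endpoint OD595 vs no drug): OD595 on entry to stationary phase over no-drug wells; at most 1.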

CCC[C@@H]1C[C@@H](C(=O)N[C@@H]([C@H]2O[C@H](SC)[C@H](O)[C@@H](O)[C@H]2O)[C@@H](C)O)N(C)C1 [Lincomycin] + CN(C)c1cc(NC(=O)CNC(C)(C)C)c(O)c2c1C[C@H]1C[C@H]3[C@H](N(C)C)C(O)=C(C(N)=O)C(=O)[C@@]3(O)C(O)=C1C2=O [Tigecycline]
fitness
Conditions	first compound 0.1 µg/mL	first compound 0.2 µg/mL	first compound 0.215 µg/mL	first compound 0.4 µg/mL	first compound 0.43 µg/mL	first compound 0.8 µg/mL	first compound 0.86 µg/mL
[1], partner 0.65 µg/mL	–	0.637	0.804	0.572	0.745	0.275	0.238
[1], partner 1.3 µg/mL	–	0.63	0.789	0.578	0.694	0.314	0.213
[1], partner 2.6 µg/mL	–	0.618	0.802	0.572	0.648	0.186	0.156
[2], partner 0.039 µg/mL	0.894	0.865	–	0.979	–	–	–
[2], partner 0.078 µg/mL	0.953	0.861	–	0.897	–	–	–
[2], partner 0.156 µg/mL	0.924	0.867	–	0.846	–	–	–

fitness, [2], one replicate
Conditions	first compound 0.4 µg/mL	first compound 0.8 µg/mL	first compound 1.6 µg/mL
partner 0.125 µg/mL	0.977	≥ 1	0.944
partner 0.25 µg/mL	0.856	0.886	0.845
partner 0.5 µg/mL	0.867	0.888	0.907

Conditions	Bliss interaction score
[3]	-0.133
[4]	0.0588
[5]	-0.213
[6]	-0.076
